Laboratory results reported in US20210139435A1, “PROSTAGLANDIN ANALOGS AND USES THEREOF” (Lifex Biolabs, Inc., priority 2019, published 2021).

Biological target: Nurr1 (Homo sapiens, UniProt P43354)
Assay: Activation of Nurr1 / Nurr1's transcription function by prostaglandins (stated without method)
Assay type: cell-based
Settings: not given

Sequence of Nurr1 (P43354 whole entry, species assumed): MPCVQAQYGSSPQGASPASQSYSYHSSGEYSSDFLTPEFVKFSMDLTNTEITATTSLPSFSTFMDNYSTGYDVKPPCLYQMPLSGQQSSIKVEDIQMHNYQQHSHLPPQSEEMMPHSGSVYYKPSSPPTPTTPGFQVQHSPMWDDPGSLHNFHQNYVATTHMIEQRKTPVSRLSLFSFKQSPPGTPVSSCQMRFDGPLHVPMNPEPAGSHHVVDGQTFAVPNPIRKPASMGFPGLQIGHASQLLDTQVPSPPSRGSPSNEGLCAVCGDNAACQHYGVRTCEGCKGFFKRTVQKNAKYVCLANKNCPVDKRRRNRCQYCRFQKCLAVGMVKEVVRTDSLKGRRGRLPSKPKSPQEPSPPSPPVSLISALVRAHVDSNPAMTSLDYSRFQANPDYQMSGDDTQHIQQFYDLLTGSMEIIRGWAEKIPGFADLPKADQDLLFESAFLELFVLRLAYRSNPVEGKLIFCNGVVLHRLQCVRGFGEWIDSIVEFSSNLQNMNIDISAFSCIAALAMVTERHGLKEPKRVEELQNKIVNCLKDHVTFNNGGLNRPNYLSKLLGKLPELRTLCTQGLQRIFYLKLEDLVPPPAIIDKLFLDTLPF

Structure (SMILES) | Nurr1's transcription function
CCCCC(C)(O)C/C=C/[C@H]1[C@H](O)CC(=O)[C@@H]1CCCCCCC(=O)OC (some centres unmarked) [misoprostol, Misoprostol] | enhanced

Biological target: T1, mouse Nurr1 full-length (Mus musculus, UniProt Q06219)
T1 construct: pcDNA3.1 Myc/His mouse Nurr1 full-length construct; expressed in transfected cells; host or cells: SK-N-BE2C
Assay: Luciferase reporter gene assay for Nurr1 transcriptional activity in SK-N-BE2C cells
Assay type: cell-based
Settings: relative activity over control (luminescence value; 1.0)
Method: To investigate whether the PG analogs of the present invention activate Nurr1 function, the inventors of the present invention employed an reporter gene assay and examined the transcriptional activation as described in Kim, C.-H. et al., Proceedings of the National Academy of Sciences 112, 8756-8761, doi:10.1073/pnas.1509742112 (2015).
The gene assay was performed by Luciferase assay as described below:
[Protocol for Luciferase Assay to Determine Nurr1 Transcriptional Activity] • 1. SK-N-BE2C cells were maintained in HyClone™ DMEM High Glucose (Cat. No.: SH30022.01) with 10% (v/v) fetal bovine serum (FBS), 100 units/ml penicillin and 100 μg/ml streptomycin. • 2. Seed 1.5×10^5 SK-N-BE2C cells/well into a 24-well plate and incubate at 37° C. with 5% CO2 for 24 hours. • 3. After 24 hours, transfect cells with pcDNA3.1 Myc/His mouse Nurr1 full-length construct, firefly luciferase reporter vector (pGL-3 basic from Promega, Cat. No.:E1751; with appropriate response element cloned in) and Renilla luciferase control vector (pRL-null from Promega, Cat. No.:E2271) in the ratio of 8:1:1 (Nurr1: firefly: renilla) or 400 ng, 50 ng and 50 ng respectively, amounting to a total of 500 ng in the 50 μl transfection mix for 1 well. • 4. To make the transfection mix, first prepare the DNA with P3000 reagent by adding the appropriate amount of DNA with 1 μl P3000 reagent and top up with Opti-MEM® I Reduced-Serum Media (from ThermoFisher Scientific [Cat. No.: 31985070]) to 25 μl. Incubate for 5 minutes at room temperature. • 5. Make another mix consisting of 1 μl Lipofectamine 3000 reagent with 24 μl Opti-MEM® I Reduced-Serum Media per well. Add this Lipofectamine mix to the previous DNA-P3000 mix (after the previous 5 minute incubation) and incubate them for 15 minutes at room temperature. [P3000:Lipofectamine=1:1]. • 6. In the meantime, change the media in the sample wells with fresh DMEM media without antibiotics. • 7. After 15 minutes incubation, add the 50 μl transfection mix into each well and incubate the plate for 24 hours at 37° C. with 5% CO2. • 8. After 24 hours, change the media to normal DMEM media with antibiotics and add various doses of compounds into designated wells and incubate the plate for another 24 hours at 37° C. with 5% CO2. • 9. Following the 24-hour incubation period, luciferase assay can be conducted using Dual-Glo Luciferase® kit from Promega (Cat. No.: E2920). • 10. Lyse each tested wells for 15 minutes with 75 μl of passive lysis buffer provided in the Dual-Luciferase® kit from Promega (Cat. No.: E1910). [Alternatively, add 75 μl of PBS and 75 μl of Dual-Glo® Luciferase Reagent and incubate for 10 minutes at room temperature (cover the plate with foil to protect from light). Transfer the entire sample in each well to a Greiner CELLSTAR® 96-well white polystyrene plate then proceed to step 13]. • 11. After 15 minutes, transfer each lysed sample to a Greiner CELLSTAR® 96-well white polystyrene plate (Cat. No.:655083). • 12. To each well of lysed cells, add 75 μl of Dual-Glo® Luciferase Reagent and incubate for 10 minutes at room temperature (cover the plate with foil to protect from light). • 13. Set the measurement with a 10-second integrated measurement period. • 14. Add 75 μl of Dual-Glo® Stop & Glo® reagent into each well and incubate for 10 minutes before commencing with the same parameters as before to determine the RLU for the Renilla luciferase. • 15. The averaged reading for wells corresponding to non-transfected cells can be subtracted from each RLU reading and duplicate/triplicate readings can then be averaged. Normalization of the luminescence reading for each well can be carried out by dividing the firefly luciferase RLU with the corresponding Renilla luciferase RLU. Each drug-treated well can then be normalized against the averaged DMSO-treated well reading.

T1 sequence (Q06219 whole entry): as the sequence (P43354 whole entry, species assumed) above, with T131S, G134S, E354D counted along it

Structure (SMILES) | Fold activity (1 uM)
CC(C)OC(=O)CCC/C=C\C[C@@H]1[C@@H](CC[C@@H](O)CCc2ccccc2)[C@H](O)C[C@@H]1O [Compound 91, Latanoprost] | B (1.1~2.0 (moderate))
CCCCC[C@H](O)/C=C/[C@H]1[C@H](O)CC(=O)[C@@H]1CCCCCCC(=O)Oc1ccc(NC(=O)c2ccc(F)c(F)c2)cc1 [Compound 12, 4-(3,4-difluorobenzamido)phenyl 7-((1R,2R,3R)-3-hydroxy-2-((S,E)-3-hydroxyoct-1-enyl)-5-oxocyclopentyl)heptanoate] | A (above 2.0 (high activity))
CCCCC[C@H](O)/C=C/[C@H]1[C@@H](O)CC(=O)[C@@H]1CCCCCCC(=O)O [Compound 85, 11b-Prostaglandin E1] | C (below 1.0 (low activity))
CCCCC[C@H](O)/C=C/[C@H]1[C@H](O)CC(=O)[C@H]1CCCCCCC(=O)O [Compound 50, 8-iso Prostaglandin E1] | A (above 2.0 (high activity))
CCCCC(C)(O)C/C=C/[C@H]1[C@H](O)CC(=O)[C@@H]1CCCCCCC(=O)NOc1ccccc1 (stereo partly drawn) [Compound 10, 7-((1R,2R,3R)-3-hydroxy-2-((E)-4-hydroxy-4-methyloct-1-enyl)-5-oxocyclopentyl)-N-phenoxyheptanamide] | A (above 2.0 (high activity))
CCCCC[C@H](O)/C=C/[C@H]1[C@H](O)CC(=O)[C@@H]1C/C=C\CCCC(=O)NCCO [Compound 36, Prostaglandin E2 Ethanolamide] | B (1.1~2.0 (moderate))
CCCCC[C@H](O)/C=C/[C@H]1[C@H](O)CC(=O)[C@@H]1C/C=C\CCCC(=O)O [Compound 20, Prostaglandin E2] | A (above 2.0 (high activity))
O=C(CCC/C=C\C[C@@H]1[C@@H](CC[C@@H](O)CCc2ccccc2)[C@H](O)C[C@@H]1O)OCCCCO[N+](=O)[O-] [Compound 95, Latanoprostene bunod] | C (below 1.0 (low activity))
CCCCC[C@](C)(O)/C=C/[C@H]1C(=O)C[C@H](O)[C@@H]1C/C=C\CCCC(=O)O [Compound 57, 15(S)-15-methyl Prostaglandin D2] | B (1.1~2.0 (moderate))
CCCCC[C@H](O)/C=C/[C@H]1[C@H](O)CC(=O)[C@@H]1CCCCCCC(=O)NCCO [Compound 88, Alprostadil Ethanolamide] | B (1.1~2.0 (moderate))
CCCC[C@H](C)C[C@H](O)/C=C/[C@H]1[C@H](O)CC(=O)[C@@H]1CCCC/C=C/C(=O)O [Compound 67, Limaprost] | A (above 2.0 (high activity))
CCCCC[C@H](O)/C=C/[C@H]1[C@H](O)CC(=O)[C@@H]1CCCCCCCO [Compound 89, 1,11a,15S-Trihydroxy-prost-13E-EN-9-ONE] | A (above 2.0 (high activity))
CCCCC[C@H](O)/C=C/[C@H]1C(=O)C[C@H](O)[C@@H]1CCCCCCC(=O)O [Compound 48, Prostaglandin D1] | C (below 1.0 (low activity))
CCCCC[C@H](O)/C=C/[C@H]1C(=O)C[C@H](O)[C@@H]1C/C=C\CCCC(=O)NCCO [Compound 72, Prostaglandin D2 Ethanolamide] | C (below 1.0 (low activity))
CCCCC[C@H](O)/C=C/[C@H]1[C@H](O)CC(=O)[C@@H]1CCCCCCC(=O)Oc1cc(OC)c(OC)c(OC)c1 [Compound 14, 3,4,5-trimethoxyphenyl 7-((1R,2R,3R)-3-hydroxy-2-((S,E)-3-hydroxyoct-1-enyl)-5-oxocyclopentyl)heptanoate] | A (above 2.0 (high activity))
CCCCC[C@](C)(O)/C=C/[C@@H]1[C@@H](C/C=C\CCCC(=O)O)[C@@H](O)C[C@H]1O [Compound 86, Carboprost] | C (below 1.0 (low activity))

Structure (SMILES) | Fold activity (1 uM)
CCCCC[C@H](O)/C=C/[C@H]1[C@H](O)CC(=O)[C@@H]1CCCCCCC(=O)O [Compound 73, Prostaglandin E1] | A (above 2.0 (high activity))
O=C(O)CCCCCC[C@H]1C(=O)C[C@@H](O)[C@@H]1/C=C/[C@@H](O)Cc1ccccc1 [Compound 59, 16-phenyl tetranor Prostaglandin E1] | B (1.1~2.0 (moderate))
O=C(O)CCC/C=C\CC1C(O)CC(=O)C1/C=C/C(O)CCc1ccccc1 (centres unmarked) [Compound 65, 17-phenyl trinor Prostaglandin D2] | C (below 1.0 (low activity))
CCCCC[C@H](O)/C=C/[C@H]1[C@H](O)CC(=O)[C@@H]1C/C=C\CCCC(=O)NCCCCCNC(=O)CCCC[C@H]1SC[C@@H]2NC(=O)N[C@@H]21 [Compound 39, Prostaglandin E2-biotin] | B (1.1~2.0 (moderate))
CCCCC[C@H](O)CC[C@H]1[C@H](O)CC(=O)[C@@H]1CCCCCCC(=O)O [Compound 58, 13,14-dihydro Prostaglandin E1] | A (above 2.0 (high activity))
CCCCC[C@@H](O)/C=C/[C@H]1[C@H](C/C=C\CCCC(=O)O)C(=O)C[C@@H]1O [Compound 47, ent-Prostaglandin E2] | B (1.1~2.0 (moderate))
CCCC1([C@H](O)C/C=C/[C@H]2[C@H](O)CC(=O)[C@@H]2C/C=C\CCCC(=O)O)CCC1 [Compound 43, CAY10408] | B (1.1~2.0 (moderate))
CCCCC[C@](C)(O)/C=C/[C@H]1[C@H](O)CC(=O)[C@@H]1CCCCCCC(=O)O [Compound 27, 15(S)-15-methyl Prostaglandin E1] | A (above 2.0 (high activity))
O=C(O)CCC/C=C\CC1C(=O)CC(O)C1/C=C/C(O)CC1CCCCC1 (centres unmarked) [Compound 71, 8-iso-16-cyclohexyl-tetranor Prostaglandin E2] | B (1.1~2.0 (moderate))
CCCCC[C@@](C)(O)/C=C/[C@H]1[C@H](O)CC(=O)[C@@H]1C/C=C\CCCC(=O)O [Compound 53, 15(R)-15-methyl Prostaglandin E2] | B (1.1~2.0 (moderate))
CCCCCC(=O)/C=C/[C@H]1[C@H](O)CC(=O)[C@@H]1CCCCCCC(=O)O [Compound 19, 15-keto Prostaglandin E1] | B (1.1~2.0 (moderate))
CCCCC[C@@H](O)/C=C/[C@H]1C(=O)C[C@H](O)[C@@H]1CCCCCCCO [Compound 56, Prostaglandin D1 Alcohol] | C (below 1.0 (low activity))
CCCCC[C@@H](O)/C=C/[C@H]1[C@H](O)CC(=O)[C@@H]1C/C=C\CCCC(=O)O [Compound 37, 15(R)-Prostaglandin E2] | B (1.1~2.0 (moderate))
O=C(O)CCC/C=C\C[C@H]1C(=O)C[C@@H](O)[C@@H]1/C=C/[C@@H](O)CCc1ccccc1 [Compound 38, 17-phenyl trinor Prostaglandin E2] | B (1.1~2.0 (moderate))
CCCCCC(=O)CC[C@H]1[C@H](O)CC(=O)[C@@H]1C/C=C\CCCC(=O)O [Compound 29, 13,14-dihydro-15-keto Prostaglandin E2] | B (1.1~2.0 (moderate))
